The Kinase Knowledgebase extract (Sharma et al. 2016)

Experiments:
Experiment in all cases: Enzyme Assay
PIK3CG (human) = PIK3CG (human) (UniProt P48736)
PIK3CB (Human) = PIK3CB (Human) (UniProt P42338)
PIK3CD (Human) = PIK3CD (Human) (UniProt O00329)
Chain of PIK3CD (Human) (O00329 whole entry, looked up): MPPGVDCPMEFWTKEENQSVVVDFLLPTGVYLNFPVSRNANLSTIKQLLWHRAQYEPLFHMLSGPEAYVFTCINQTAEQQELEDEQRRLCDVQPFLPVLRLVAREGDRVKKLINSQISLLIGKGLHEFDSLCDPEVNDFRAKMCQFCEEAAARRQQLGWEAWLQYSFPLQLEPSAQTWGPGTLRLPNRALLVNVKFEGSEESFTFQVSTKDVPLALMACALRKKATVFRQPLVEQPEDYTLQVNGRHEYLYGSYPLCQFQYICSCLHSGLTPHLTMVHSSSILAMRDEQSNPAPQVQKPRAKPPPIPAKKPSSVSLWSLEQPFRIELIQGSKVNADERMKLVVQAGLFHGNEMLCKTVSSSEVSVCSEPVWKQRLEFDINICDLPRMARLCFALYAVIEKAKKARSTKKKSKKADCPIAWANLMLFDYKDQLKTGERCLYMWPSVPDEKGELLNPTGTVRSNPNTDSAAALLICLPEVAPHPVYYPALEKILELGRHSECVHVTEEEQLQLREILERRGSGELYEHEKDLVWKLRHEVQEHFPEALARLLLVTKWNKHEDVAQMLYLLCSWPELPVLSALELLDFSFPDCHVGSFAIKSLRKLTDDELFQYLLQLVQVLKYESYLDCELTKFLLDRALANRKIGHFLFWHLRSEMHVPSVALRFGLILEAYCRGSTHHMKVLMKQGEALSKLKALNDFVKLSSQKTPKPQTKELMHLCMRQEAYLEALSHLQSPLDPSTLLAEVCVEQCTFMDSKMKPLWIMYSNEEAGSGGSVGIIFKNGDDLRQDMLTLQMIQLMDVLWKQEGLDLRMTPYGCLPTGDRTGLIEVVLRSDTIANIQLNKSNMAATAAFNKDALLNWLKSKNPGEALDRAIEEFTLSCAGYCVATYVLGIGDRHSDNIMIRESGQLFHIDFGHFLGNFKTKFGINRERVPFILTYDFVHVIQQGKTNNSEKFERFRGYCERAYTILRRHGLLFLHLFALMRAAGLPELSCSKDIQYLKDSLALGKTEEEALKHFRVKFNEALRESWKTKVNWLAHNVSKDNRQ

Chain of PIK3CB (Human) (P42338 whole entry, looked up): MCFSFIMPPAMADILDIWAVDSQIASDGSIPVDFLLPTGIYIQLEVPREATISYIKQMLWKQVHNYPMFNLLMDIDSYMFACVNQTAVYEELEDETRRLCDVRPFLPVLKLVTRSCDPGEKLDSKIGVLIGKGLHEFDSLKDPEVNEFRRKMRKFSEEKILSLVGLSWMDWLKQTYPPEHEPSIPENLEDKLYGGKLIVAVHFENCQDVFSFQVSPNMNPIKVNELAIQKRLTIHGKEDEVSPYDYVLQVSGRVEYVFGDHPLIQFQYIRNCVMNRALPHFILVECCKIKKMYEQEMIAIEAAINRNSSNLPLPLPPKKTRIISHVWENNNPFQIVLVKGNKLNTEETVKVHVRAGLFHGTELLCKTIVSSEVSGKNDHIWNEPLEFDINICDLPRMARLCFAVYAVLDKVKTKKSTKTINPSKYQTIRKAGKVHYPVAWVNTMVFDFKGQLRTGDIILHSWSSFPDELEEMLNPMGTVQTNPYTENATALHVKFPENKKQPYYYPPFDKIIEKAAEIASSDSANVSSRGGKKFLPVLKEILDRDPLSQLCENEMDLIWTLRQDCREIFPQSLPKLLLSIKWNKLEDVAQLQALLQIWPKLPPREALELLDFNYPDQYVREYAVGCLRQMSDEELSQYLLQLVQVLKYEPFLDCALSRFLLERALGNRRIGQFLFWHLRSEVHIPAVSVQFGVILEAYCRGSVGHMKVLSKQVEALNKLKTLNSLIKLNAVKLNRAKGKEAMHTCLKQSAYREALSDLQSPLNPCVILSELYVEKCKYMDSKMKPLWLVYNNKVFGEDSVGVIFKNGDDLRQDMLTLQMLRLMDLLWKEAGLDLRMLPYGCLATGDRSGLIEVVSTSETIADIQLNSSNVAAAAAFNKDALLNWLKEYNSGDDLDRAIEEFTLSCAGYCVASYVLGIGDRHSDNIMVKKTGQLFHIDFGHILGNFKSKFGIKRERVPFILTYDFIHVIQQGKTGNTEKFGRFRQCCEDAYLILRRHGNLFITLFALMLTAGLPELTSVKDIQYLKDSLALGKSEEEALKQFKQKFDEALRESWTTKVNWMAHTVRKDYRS
Chain of PIK3CG (human) (P48736 whole entry, looked up): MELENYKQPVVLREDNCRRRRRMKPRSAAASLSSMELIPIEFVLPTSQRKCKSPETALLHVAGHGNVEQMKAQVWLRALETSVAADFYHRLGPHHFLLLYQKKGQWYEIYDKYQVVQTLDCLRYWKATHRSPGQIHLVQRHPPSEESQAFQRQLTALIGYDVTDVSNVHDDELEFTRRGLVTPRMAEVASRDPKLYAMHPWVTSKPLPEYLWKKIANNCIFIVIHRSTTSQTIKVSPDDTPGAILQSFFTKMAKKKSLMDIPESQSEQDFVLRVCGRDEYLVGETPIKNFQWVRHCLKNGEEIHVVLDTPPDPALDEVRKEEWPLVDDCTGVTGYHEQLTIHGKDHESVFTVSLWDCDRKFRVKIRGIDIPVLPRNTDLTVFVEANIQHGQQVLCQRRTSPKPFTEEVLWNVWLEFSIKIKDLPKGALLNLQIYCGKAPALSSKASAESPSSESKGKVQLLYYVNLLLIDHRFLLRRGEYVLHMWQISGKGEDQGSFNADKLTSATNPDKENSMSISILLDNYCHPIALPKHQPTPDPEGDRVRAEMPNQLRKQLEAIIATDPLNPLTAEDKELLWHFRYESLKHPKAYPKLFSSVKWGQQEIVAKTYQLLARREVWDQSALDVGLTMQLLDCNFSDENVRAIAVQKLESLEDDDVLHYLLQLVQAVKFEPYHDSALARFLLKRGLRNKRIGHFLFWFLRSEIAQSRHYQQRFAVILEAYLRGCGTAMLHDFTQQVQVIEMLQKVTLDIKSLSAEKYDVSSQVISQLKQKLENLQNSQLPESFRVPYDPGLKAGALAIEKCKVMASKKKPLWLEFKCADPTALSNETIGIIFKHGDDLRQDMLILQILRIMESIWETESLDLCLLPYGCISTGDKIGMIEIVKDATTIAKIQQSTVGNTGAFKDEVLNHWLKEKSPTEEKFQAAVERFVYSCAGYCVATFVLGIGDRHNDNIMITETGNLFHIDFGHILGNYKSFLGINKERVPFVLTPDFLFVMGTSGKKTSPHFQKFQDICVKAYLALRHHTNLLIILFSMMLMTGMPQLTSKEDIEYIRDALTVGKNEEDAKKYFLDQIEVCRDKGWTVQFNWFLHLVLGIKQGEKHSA

Row | IC50 (PIK3CG (human)) [µM] | IC50 (PIK3CB (Human)) [µM] | IC50 (PIK3CD (Human)) [µM] | SMILES
1 | ≥ 10 | – | – | C[C@H](Nc1ncnn2ccnc12)c1nc2cccc(Cl)c2c(=O)n1CCCN
2 | > 10 | – | – | COCCCn1c([C@H](C)Nc2ncnc(N)c2C#N)nc2c(Cl)ccc(Cl)c2c1=O
3 | ≥ 10 | – | – | C[C@H](Nc1ncnc(N)c1C#N)c1nc2cccc(Cl)c2c(=O)n1[C@H]1C[C@H](N)C1
4 | ≥ 10 | – | – | C[C@H](Nc1nc(N)nc(N)c1C#N)c1nc2cccc(Cl)c2c(=O)n1CCN1CCCC1
5 | ≥ 10 | – | – | N#Cc1c(N)ncnc1N[C@H](c1nc2cccc(Cl)c2c(=O)n1CCCN)C1CC1
6 | ≥ 10 | – | – | C[C@H](NC(=O)c1nccnc1N)c1nc2cccc(Cl)c2c(=O)n1CCCN
7 | ≥ 10 | – | – | C[C@H](Nc1ncnc(N)c1C#N)c1nc2cccc(Cl)c2c(=O)n1N(C)CCN
8 | ≥ 10 | – | – | C[C@H](Nc1ncnc(N)c1C#N)c1nc2cccc(Cl)c2c(=O)n1CCCNCc1ccccc1
9 | ≥ 10 | – | – | C[C@H](Nc1nc(N)nc(N)c1C#N)c1nc2cccc(Cl)c2c(=O)n1N(CCN)Cc1ccccc1
10 | ≥ 10 | – | – | C[C@H](Nc1ncnc(N)c1C#N)c1nc2cccc(Cl)c2c(=O)n1CC1CCCNC1 (stereo not given in full)
11 | ≥ 10 | – | – | CC(C)C[C@H](Nc1ncnc(N)c1C#N)c1nc2cccc(Cl)c2c(=O)n1CCCN
12 | ≥ 10 | – | – | C[C@H](Nc1ncnc(N)c1C#N)c1nc2cccc(Cl)c2c(=O)n1CC1CCCCN1 (stereo not given in full)
13 | ≥ 10 | – | – | C[C@H](Nc1ncnc(N)c1C#N)c1nc2cccc(Cl)c2c(=O)n1CCCCN
14 | ≥ 10 | – | – | C[C@H](Nc1ncnc(N)c1C#N)c1nc2cccc(Cl)c2c(=O)n1CCN1CCCC1
15 | ≥ 10 | – | – | Cc1ncnc(N[C@@H](C)c2nc3cccc(Cl)c3c(=O)n2CCCN)c1C#N
16 | ≥ 10 | – | – | C[C@H](Nc1nc(N)nc(N)c1Cl)c1nc2cccc(Cl)c2c(=O)n1CCCN
17 | ≥ 10 | – | – | N#Cc1c(N)nc(N)nc1N[C@@H](c1ccccc1)c1nc2cccc(Cl)c2c(=O)n1CCCN
18 | ≥ 10 | – | – | CC[C@H](Nc1ncnc(N)c1C#N)c1nc2cccc(Cl)c2c(=O)n1CCCN

Second part, the compound before the results:

Row | SMILES | IC50 (PIK3CG (human)) [µM] | IC50 (PIK3CB (Human)) [µM] | IC50 (PIK3CD (Human)) [µM]
19 | CNCCCn1c([C@H](C)Nc2ncnc(N)c2C#N)nc2cccc(Cl)c2c1=O | ≥ 10 | – | –
20 | C[C@H](Nc1nc(N)nc(N)c1C#N)c1nc2cccc(Cl)c2c(=O)n1C[C@@H]1CCCNC1 | 1.3 | 0.079 | 0.003
21 | CC(CN)n1c([C@H](C)Nc2ncnc(N)c2C#N)nc2cccc(Cl)c2c1=O (stereo not given in full) | ≥ 10 | – | –
22 | C[C@H](Nc1ncnc(N)c1C#N)c1nc2cccc(Cl)c2c(=O)n1CCC(C)(C)N | ≥ 10 | – | –
23 | C[C@H](Nc1nc(N)nc(N)c1C#N)c1nc2cccc(Cl)c2c(=O)n1C[C@H]1CCCNC1 | 3.2 | 0.088 | 0.002
24 | C[C@H](Nc1ncnc(N)c1C#N)c1nc2cccc(Cl)c2c(=O)n1CCCN1CCCCC1 | ≥ 10 | – | –
25 | C[C@H](Nc1ncnc(N)c1C#N)c1nc2cccc(Cl)c2c(=O)n1CCCN(C)C | ≥ 10 | – | –
26 | C[C@H](Nc1ncnc(N)c1C#N)c1nc2cccc(Cl)c2c(=O)n1CC1CCCN1 (stereo not given in full) | ≥ 10 | – | –
27 | C[C@H](Nc1ncnc(N)c1C#N)c1nc2cccc(Cl)c2c(=O)n1N(CCN)Cc1ccccc1 | ≥ 10 | – | –
28 | C[C@H](Nc1ncnc(N)c1C#N)c1nc2cccc(Cl)c2c(=O)n1CC1CCNC1 (stereo not given in full) | ≥ 10 | – | –
29 | Nc1nc(N)c(Cl)c(N[C@H](c2nc3c(Cl)ccc(Cl)c3c(=O)n2[C@H]2C[C@@H](O)C2)C2CC2)n1 | ≥ 10 | – | –
30 | CC(CCN)n1c([C@H](C)Nc2ncnc(N)c2C#N)nc2cccc(Cl)c2c1=O (stereo not given in full) | ≥ 10 | – | –
31 | C[C@H](Nc1ncnc(N)c1C#N)c1nc2cccc(Cl)c2c(=O)n1CC1CCNCC1 | ≥ 10 | – | –
32 | COCCCn1c([C@H](C)Nc2ncnc(N)c2C#N)nc2c(F)ccc(F)c2c1=O | ≥ 10 | – | –
33 | C[C@H](Nc1ncnc(N)c1C#N)c1nc2cccc(Cl)c2c(=O)n1CCCN1CCN(C)CC1 | ≥ 10 | – | –
34 | C[C@H](Nc1ncnc(N)c1C#N)c1nc2cccc(Cl)c2c(=O)n1CC1CNCCO1 (stereo not given in full) | ≥ 10 | – | –
35 | C[C@H](Nc1ncnc(N)c1C#N)c1nc2cccc(Cl)c2c(=O)n1CCN | ≥ 10 | – | –
36 | C[C@H](Nc1ncnc(N)c1Cl)c1nc2cccc(Cl)c2c(=O)n1CCCN | ≥ 10 | – | –
37 | NCCCn1c([C@@H](Nc2ncnn3ccnc23)C2CC2)nc2cccc(Cl)c2c1=O | ≥ 10 | – | –
38 | CC(CN)Cn1c([C@H](C)Nc2ncnc(N)c2C#N)nc2cccc(Cl)c2c1=O (stereo not given in full) | ≥ 10 | – | –
39 | C[C@H](Nc1ncnc(N)c1C#N)c1nc2cccc(Cl)c2c(=O)n1CCN1CCN(C)CC1 | ≥ 10 | 0.34 | 0.011
40 | C[C@H](Nc1ncnc2scnc12)c1nc2cccc(Cl)c2c(=O)n1CCC(C)(C)N | ≥ 10 | – | –
41 | Cc1cccc2nc([C@H](C)Nc3ncnc(N)c3C#N)n(CCCN)c(=O)c12 | ≥ 10 | – | –
42 | NCCCn1c([C@@H](Nc2nc(N)nc(N)c2Cl)C2CC2)nc2cccc(Cl)c2c1=O | ≥ 10 | – | –
43 | C[C@H](Nc1ncnc(N)c1C#N)c1nc2cccc(Cl)c2c(=O)n1C[C@@H](O)CO | ≥ 10 | – | –
44 | C[C@H](Nc1ncnc2[nH]cnc12)c1nc2cccc(Cl)c2c(=O)n1CCCN1CCOCC1 | ≥ 10 | – | –
